The test system of assay [1] is pGMR-HTTQ120 flies. Description: Huntington's model Drosophila (pGMR-HTTQ120), rhabdomere count by pseudopupil analysis. The class given is in vivo. An excerpt:
To investigate the effect of diacetyl on neurodegeneration, Huntington model Drosophila flies (GMR-HTTQ120; expressing human huntington HTTQ120 protein from a GMR promoter) were exposed to odor 1 (diacetyl) at 1% concentration from filter paper for five days as a volatile scent. Following exposure, the omatidia in the eyes of the flies were visualized. […] The number of rhabdomeres present in the omatidia were counted (wildtype flies have 7 rhabdomeres in each omatidia).
When the transgenic flies expressing two copies of the human Huntington with poly-Q repeats (HTTQ120) under control of the eye-specific GMR promoter were raised at 18° C., the number of rhabdomeres in each ommatidium was similar to that of control flies (7) immediately post-eclosion (day 1, FIGS. 8A-8C). […] The mean number of rhabdomeres was reduced from 7 to ˜1 by day 10.
Flies were exposed to diacetyl in a cylindrical container (112 mm diameter×151 mm height). Each container was tightly closed but had 2 holes, one of which connected to an air suction port, and the other to a vial containing either of 5 mL paraffin oil or 5 mL 1% diacetyl in paraffin oil. A gentle suction was applied to pull the headspace from the odor or paraffin oil vials into the cylindrical structure (FIG. 11). pGMR-HTTQ120 flies were maintained at 18° C. Adult flies aged 1 d were transferred to fly vials containing fresh medium, and put into the odor-filled container at room temperature. Paraffin oil and 1% diacetyl solution were prepared and replaced every day. At the end of the fifth day of exposure, half of the flies were collected and subjected to pseudopupil analysis. The remaining flies were transferred to fresh medium and exposed to the odors for an additional 5 days. All treatments and experiments were performed at room temperature.
Pseudopupil Analysis was performed according to a protocol described previously (Song et al., 2013). Flies were decapitated and mounted on a microscope slide by dipping in a drop of nail polish. The arrangement of rhabdomeres in the ommatidia of the compound eyes were analyzed with Axio Imager M2 (Carl Zeiss, Oberkochen, Germany) using a 63× objective, and photographed with Axiocam 506 mono (Carl Zeiss). Six hundred ommatidia from 30 eyes of 15 flies were scored for each condition.

Assay [2] concerns H4K5 acetylation in HEK293 cells. The assay is described as follows: Western blot of histone acetylation in HEK293 nuclear extracts: H4K5. The class given is cell-based, human. Here is the method:
(§1) In order to test whether diacetyl can increase acetylation of histones in vivo, human HEK293 cells were used, which offer a tractable system to prepare nuclear extracts. The cells were exposed to different doses of diacetyl for 2 or 6 hours, and monitored histone acetylation levels by Western blot analysis from nuclear extract. […] The acetylation levels of H3K14 and H4K5 were not affected (FIG. 5A).
Human embryonic kidney 293 (HEK293) cells were grown in 100 mm cell culture dishes with Dulbecco's modified Eagle's medium (DMEM) (10-013, Corning, Manassas, Va.), supplemented with 10% fetal bovine serum (FBS) (26140-079, Gibco, Carlsbad, Calif.) at 37° C. with 5% CO2. Cells that were ˜80% confluent were treated with freshly-prepared medium supplemented with diacetyl at concentrations indicated. In order to prevent diffusion of diacetyl odor from the treatment dishes to the outside environment, the cell culture dishes were put into a custom-made container (155.6×155.6×85.7 mm) with a charcoal filter top. […]
(§2) Proteins in the nuclear extracts (60 μg protein) were separated by SDS-PAGE gels (456-1043, Bio-Rad, Hercules, Calif.), transferred onto PVDF membranes (162-0174, Bio-Rad), and incubated with anti-histone antibodies: acetylated H3K9 (1/2000: ab4441, abeam, Cambridge, Mass.), acetylated H3K14 (1/5000: 06-911, EMD Millipore, Billerica, Mass.), acetylated H4K5 (1/2000: 07-327, EMD Millipore). Bound antibody was detected by horseradish peroxidase-conjugated anti-rabbit secondary antibody (1/20000: 1705046, Bio-Rad) and developed using Clarity™ Western ECL Substrate (1705060, Bio-Rad). Signals were detected and captured by ImageQuant™ LAS 4000 mini (GE healthcare, Pittsburgh, Pa.), and band intensities were quantified with ImageJ software. H3K9 acetylation intensity in individual lanes was reported relative to the normalized Mock treatment (Mock H3K9ace/Mock PCNA), and calculated using this formula: Relative H3K9ace intensity for each timepoint=(Diacetyl H3K9ace/diacetyl PCNA)/(Mock H3K9ace/Mock PCNA).

Assay [3] concerns the target T1, human HDAC3 (Homo sapiens, UniProt O15379).
T1 construct: purchased BPS Bioscience 50073
The assay is described as follows: Fluorometric HDAC activity assay, purified human HDAC3. The class given is biochemical. The conditions noted are these: purified human HDAC3, n=4-5. Here is the method: In order to directly test whether diacetyl acts as an inhibitor of HDACs, in vitro acetylation assays was performed with purified human HDACs. In this example, β-hydroxybutyrate (a naturally-occurring HDAC inhibitor secreted by the liver, targeting zinc-dependent HDACs) was used for comparison. HDAC activity of class I HDACs (HDAC1, 2, 3 and 8) was measured with the fluorometric HDAC Activity Assay kit: HDAC1 (10011563, Cayman Chemical, Ann Arbor, Mich.), HDAC2, HDAC 3 and HDAC 8 (50062, 50073 and 50068, BPS Bioscience, San Diego, Calif.), according to the manufacturer's instructions.

Assay [4] relates to H3K9 acetylation in HEK293 cells. Description: Western blot of histone acetylation in HEK293 nuclear extracts: H3K9. In kind it is cell-based, human. Here is the method: The effect of diacetyl on histone acetylation was further investigated using direct analysis of histone 3K9 acetylation in HEK cells. In vivo activity of diacetyl was determined by gel electrophoresis chromatography of HEK cell lysate exposed to 0 μM, 1 μM and 10 μM of diacetyl (odor 1) in whole HEK cell lysates. […] Proliferating cell nuclear antigen (PCNA; 29 kDa) is a nuclear protein included as a loading control for nuclear protein extracts.
as §1
Human embryonic kidney 293 (HEK293) cells were grown in 100 mm cell culture dishes with Dulbecco's modified Eagle's medium (DMEM) (10-013, Corning, Manassas, Va.), supplemented with 10% fetal bovine serum (FBS) (26140-079, Gibco, Carlsbad, Calif.) at 37° C. with 5% CO2. Cells that were ˜80% confluent were treated with freshly-prepared medium supplemented with diacetyl at concentrations indicated. In order to prevent diffusion of diacetyl odor from the treatment dishes to the outside environment, the cell culture dishes were put into a custom-made container (155.6×155.6×85.7 mm) with a charcoal filter top. The cells for non-treatment controls were handled in the same manner without adding diacetyl to the medium.
Nuclear extracts of HEK293 cells were prepared according to a protocol described previously (Andrews and Faller, 1991), with minor modifications. In brief, HEK293 cells were washed twice with cold phosphate-buffered saline (PBS) and lysed with hypotonic buffer (10 mM HEPES-KOH [pH 7.9], 1.5 mM MgCl2, 10 mM KCl, protease inhibitor cocktail [Roche], 1 mM DTT, 1 mM TSA). Following a brief centrifugation, the pellet was resuspended in hypertonic buffer (20 mM HEPES-KOH [pH 7.9], 25% glycerol, 420 mM NaCl 1.5 mM MgCl2, 0.2 mM EDTA, protease inhibitor cocktail (04693159001, Roche, Indianapolis, Ind.), 1 mM DTT, 1 mM TSA). The supernatant was recovered as nuclear extract.
as §2

T1 sequence (O15379 whole entry): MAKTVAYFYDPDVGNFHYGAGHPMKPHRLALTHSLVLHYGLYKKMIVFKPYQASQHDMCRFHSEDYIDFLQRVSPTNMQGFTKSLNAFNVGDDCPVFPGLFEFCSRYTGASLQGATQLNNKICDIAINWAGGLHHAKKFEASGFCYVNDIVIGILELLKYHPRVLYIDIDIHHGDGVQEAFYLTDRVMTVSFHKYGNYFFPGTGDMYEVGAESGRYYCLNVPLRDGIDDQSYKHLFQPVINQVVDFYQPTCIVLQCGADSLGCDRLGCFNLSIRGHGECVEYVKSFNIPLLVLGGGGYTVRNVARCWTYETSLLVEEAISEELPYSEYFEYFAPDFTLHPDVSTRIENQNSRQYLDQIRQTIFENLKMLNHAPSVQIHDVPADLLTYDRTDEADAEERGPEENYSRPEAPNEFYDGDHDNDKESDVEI
T1 sequence (Q9Y618 395-489 partner limits assumed): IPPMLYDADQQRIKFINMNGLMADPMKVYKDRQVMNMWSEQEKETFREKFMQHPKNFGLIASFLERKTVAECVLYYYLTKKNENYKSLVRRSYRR

Broadly, the IC50 is the concentration at which inhibition is half-maximal. In the case of `CC(=O)C(C)=O` [diacetyl, 2,3-Butanedione], in assay [1] (1% headspace, after 10 days, solvent controls ~1-2), the “rhabdomeres left in the majority of ommatidia” value is on record as 2-3 rhabdomeres. Moreover, the “rhabdomeres retained in the majority of ommatidia” value in assay [1] (1% headspace, day 5) is 6-7 rhabdomeres. Also, in assay [1] (GMR-HTTQ120 flies, 1% from filter paper, five days, FIG. 2A), the “rhabdomeres in omatidia vs not exposed flies” value is “greater rhabdomeres”. Also, in assay [1] (volatile headspace of 1% diacetyl in paraffin oil, after eclosion, 25° C.), the “inhibition of rhabdomere loss” value amounted to 50%. For the same compound, the H4K5 acetylation level entry in assay [2] (1 mM, 2 or 6 hours) is given as “did not alter”; in assay [2] (10 mM, 2 hours), “not affected”; in assay [2] (10 mM, 6 hours) it was “unaffected”. The compound also had an IC50 in assay [3] of 7.72 mM. In addition, the H3K9 acetylation level result is listed as “significantly higher levels” in assay [4] (100 μM, 120 hrs); “increased only after 96 hrs” in assay [4] (100 μM, prolonged exposure 3-5 days, onset); “did not alter” in assay [4] (1 mM, 2 or 6 hours); “significantly increased” in assay [4] (10 mM, 2 hours, vs mock); “further increased” in assay [4] (10 mM, 6 hours). The “level of acetyl H3K9 (H3K9Ace)” value in assay [4] (HEK cells, 0 μM, 1 μM and 10 μM, FIG. 1D) is “increased with increasing concentrations”.

For the origin of these results see patent US10537535B2, “Histone deacetylase inhibitors” (The Regents of the University of California, priority 2015, dated 2020).
